Measured values as given in patent US11020468B2, “Compositions, methods and therapies for administering antigen peptide” (priority 2010, dated 2021).

Columns and labels:
P. acnes (ATCC6919) = assay: Anti-inflammatory effect of peptides against intradermic inflammation caused by P. acnes in mice; format: in vivo, Balb/c mice; details: for anti-inflammatory effect against inflammation caused by P. acnes: vs PBS
Description: Living bacterial cells of P. acnes were put in a deaerated physiological saline while keeping an anaerobic condition to prepare a suspension with the number of the living bacterial cells of P. acnes of 5×10^7 cells/ml, 1×10^8 cells/ml, or 5×10^8 cells/ml. The anaerobic condition was kept by spraying a nitrogen gas. The number of the living bacterial cells of P. acnes was calculated based on the assumption that OD measurement value of 0.98-1.02 at 550 nm measured by a spectrophotometer corresponds to 5×10^8 cells/ml, with reference to Ramstad S. et al., Photochem. Photobiol. Sci., 2006, 5, 66-72.
50 μl of the prepared suspension of P. acnes was intradermically injected into shaven abdominal midlines, neck portions, lumbar dorsal portions, tail root dorsal portions, and auricles of male Balb/c mice (9-10 weeks old). The inflammatory areas (major axis×minor axis: mm^2) at individual portions to which the suspension was injected intradermically were measured at predetermined times. Each group consisted of five individuals.
Accordingly, the anti-inflammatory effects of individual peptides were determined under the same conditions, i.e. by intradermically injecting 50 μl of P. acnes (5×10^8 cells/ml) into the abdominal midline and measuring the inflammatory area (mm^2) five days after the injection. FIG. 3 illustrates the procedure for examining the anti-inflammatory effect.
(§1) FIG. 3 is a drawing schematically illustrating the procedure for examining the anti-inflammatory effect. […] Then, P. acnes was intradermically injected into the abdominal midlines of the mice, and the inflammatory areas were measured 5 days after the injection (Day “23” in FIG. 3). Each group consisted of 10 mice. As Comparative Examples, there were prepared a group of mice to which PBS without PepA was administered and a group of mice to which PepB or PepC was administered instead of PepA, and P. acnes was injected into the groups similarly.
The anti-inflammatory effects of individual peptides were examined using an inflammation causing system under the same conditions as in Example 4 except that the peptides to be administered to mice before injection of P. acnes were changed from PepA, PepB, and PepC to PepA and PepD.

[1] = tested on: acne-patient-derived P. acnes (patient strains 1-3); assay: Anti-inflammatory effect of PepA against inflammation caused by patient-derived P. acnes in mice; format: in vivo; details: for P (inflammatory area compared with control group given PBS): 5 days after injection
Description: as §1
The anti-inflammatory effect of PepA was examined by the same procedure as in Example 5 except that bacterial cells of P. acnes to be injected into mice were the acne-patient-derived bacterial cells of P. acnes which were isolated in Example 6.
FIG. 7 is a graph showing the result of intradermically injecting, after immunization by PepA, the patient strains 1-3 (P1-P. acnes to P3-P. acnes) to the abdominal midlines of mice and measuring inflammatory areas of the mice 5 days after the injection.

[2] = Example 4, 40 μg/50 μl intradermal, three times, area 5 days after P. acnes injection into abdominal midline
[3] = Example 4, 40 μg/50 μl intradermal, three times, area 5 days after injection
[4] = Example 5, same conditions as Example 4

| Sequence | P (inflammatory area compared with control group given PBS) (P. acnes (ATCC6919); [2]) | anti-inflammatory effect against inflammation caused by P. acnes (P. acnes (ATCC6919); [3]) | P (inflammatory area compared with control group given PBS) (P. acnes (ATCC6919); [4]) | anti-inflammatory effect against inflammation caused by P. acnes (P. acnes (ATCC6919); [4]) | anti-inflammatory effect against injection of patient strains ([1]; each of patient strains 1-3, vs PBS) | P (inflammatory area compared with control group given PBS) ([1]; patient strain 1) | P (inflammatory area compared with control group given PBS) ([1]; patient strain 2) | P (inflammatory area compared with control group given PBS) ([1]; patient strain 3) |
| --- | --- | --- | --- | --- | --- | --- | --- | --- |
| AIQEKYGDDRERAG (Propionibacterium acnes) [PepA, residues 90-103 of P. acnes membrane protein AAT84059] | 0.00865 | statistically significantly reduced inflammatory area | 0.0012 | statistically significantly reduced inflammatory area | statistically significantly reducing an inflammatory area | 0.0252 | 0.0476 | 0.0237 |
| GRKPDTNKRSWHRKASR [PepB, reference compound] | 1 | do not exhibit the anti-inflammatory effect |  |  |  |  |  |  |
| IDQVREYRHRDDDDDEDPGEDG [PepC, reference compound] | 0.1655 | do not exhibit the anti-inflammatory effect |  |  |  |  |  |  |
| KDADKDNPTYQKV (Propionibacterium acnes) [PepD, residues 260-272 of P. acnes membrane protein YP_056445] |  |  | 0.00175 | statistically significantly reduced inflammatory area |  |  |  |  |
